Data as given in patent US20220144775A1, “HYDRAZIDE COMPOUND AND KINASE INHIBITOR” (NISSAN CHEMICAL CORPORATION, priority 2019, published 2022).

Legend:
[1] = test system: MDCK cells; experiment: Observation of Cyst form with confocal fluorescence microscope; format: cell-based, canine; conditions: 10 μM; β catenin, Phalloidin, DAPI staining; FIG. 1
Method: As for the respective Matrix GFRs containing Cyst cultured in a medium added with DMSO or A-004A (10 μM) and obtained in Experimental Example 3, the cells were washed with PBS (1 mL/well), 4% paraformaldehyde/PBS (manufactured by FUJIFILM Wako Pure Chemical Corporation) was added (1 mL/well) and fixed at room temperature for 20 min. Thereafter, the supernatant was removed, staining buffer [0.2% Triton X-100 (manufactured by Sigma-Aldrich), 0.05% Tween 20 (manufactured by Sigma-Aldrich)-containing PBS] were added at 1 mL/well, stood for 30 min and removed. Penetration buffer (0.5% Triton X-100 (manufactured by Sigma-Aldrich)/PBS) was added at 1 mL/well and incubated at room temperature for 30 min. The supernatant was removed, washed 3 times every 5 min with staining buffer, blocking buffer (1% bovine serum albumin (BSA manufactured by Sigma-Aldrich)/staining buffer) was added at 0.5 mL/well and incubated for 30 min. The supernatant was removed, an anti-β catenin antibody (manufactured by BD Bioscience) diluted 100-fold with blocking buffer was added at 250 μL/well, and the cells were incubated at room temperature for 60 min. […]

[2] = test system: YAP; experiment: YAP phosphorylation inhibitory action in SKOV3 (HTRF); format: cell-based, human; conditions: 10 μM, 1 hr, non-treatment 100%
Method: Human ovarian cancer cell line SKOV3 (manufactured by DS Pharma Biomedical Co., Ltd.) was precultured using a 15% FBS-containing McCoy's 5a medium (manufactured by Sigma-Aldrich) (single layer culture). The above-mentioned cells in the logarithmic growth phase were washed with PBS. A 0.25% (w/v) trypsin-1 mmol/L ethylenediaminetetraacetic acid (EDTA) solution (manufactured by FUJIFILM Wako Pure Chemical Corporation) was added and the adherent cells were incubated at 37° C. for 3 min and detached. The above-mentioned medium was added, and the cells were centrifuged and resuspended in the same medium.
According to the method of patent document 1 (WO 2014/017513), a composition of 10% FBS-containing DMEM medium (Phenol-red free, manufactured by FUJIFILM Wako Pure Chemical Corporation) containing 0.015% (w/v) deacylated gellan gum (KELCOGEL CG-LA, manufactured by SANSHO Co., Ltd.) was prepared using FCeM-series Preparation Kit (manufactured by FUJIFILM Wako Pure Chemical Corporation). Then, various cells prepared above were suspended in the above-mentioned medium composition (3D culture conditions) added with deacylated gellan gum or a medium without the addition (2D culture conditions), and seeded on a 50 μL/well (manufactured by Corning Incorporated, a 96 well flat bottom plate, #3585, 2D culture conditions) or 25 μL/well (manufactured by Corning Incorporated, 96 well low adhesion flat bottom plate, #3474) at 100000 cells/well. The plate was allowed to stand at 37° C. in a 5% CO2 incubator, and the compound of the present invention diluted with the medium at 2 or 6 times the final concentration, DMSO, or the medium alone was added to the plate 3 hr after the seeding at 50 μL/well (2D culture conditions) or 5 μL/well (3D culture conditions) to make the final concentration of each compound 10 μM. After culture at 37° C. in a 5% CO2 incubator for 1 hr, the supernatant was aspirated, supplemented Lysis buffer (1-fold concentration, manufactured by Cisbio, YAP-total kit or YAP phospho-S27 kit) (50 μL) was added under 2D culture conditions, and supplemented Lysys buffer (4-fold concentration) (10 μL) was added to the culture supernatant under 3D conditions, and the mixture was stirred by a plate shaker for 30 min. Thereafter, the plate was centrifuged, 16 μL of the supernatant was transferred to a 384-well white plate (Corning, #4512), and each antibody solution (pYAP d2 antibody or Total-YAP d2 antibody, and pYAP Cryptate antibody or Total-YAP Cryptate antibody) included in the kit was added at 4 μL/well in total, and the mixture was allowed to stand at room temperature overnight. As a blank control, pYAP Cryptate antibody or Total-YAP Cryptate antibody alone was added to cells free of stimulation with compound and the mixture was treated in the same manner. The next day, the wavelengths at 665 nm and 615′ nm were measured in the HTRF mode of EnVision (manufactured by PerkinElmer).
The obtained signal was calculated as follows. Ratio=signal (665 nm)/signal (615 nm)×10000, ΔR=Signal(Ratio)−Background fluorescence, and the relative phosphorylated YAP amount or total YAP amount for each compound when ΔR of the compound non-addition group (non-treatment) is 100% is shown in Tables 7 and 8 (2D culture), and Tables 9 and 10 (3D culture). From the results, it was shown that the compound of the present zo invention has a YAP phosphorylation inhibitory action under both 2D and 3D culture conditions.

[3] = test system: Colitis model administered with dextran sulfate sodium (DSS); experiment: Inflammation suppressive effect on DSS colitis model mouse; format: in vivo; conditions: C57BL/6NCrl mice; 2.5 w/v % DSS drinking water; 50 mg/kg intraperitoneally every 24 hr; day 8; FIG. 3
Method: Colitis model administered with dextran sulfate sodium (DSS) (manufactured by FUJIFILM Wako Pure Chemical Corporation) was produced as described below. The length of the large intestine is used as a morphological parameter in the evaluation of colitis, and the large intestine shortens according to the degree of inflammation. Therefore, the anti-inflammatory effect of the compound was evaluated by comparing the length of the large intestine. As the Buffer, a 0.5 w/v % methylcellulose aqueous solution (manufactured by FUJIFILM Wako Pure Chemical Corporation) added with Dimethyl sulfoxide (manufactured by FUJIFILM Wako Pure Chemical Corporation) at 1 v/v % was used. It was prepared by suspending compound A-004A in the above-mentioned Buffer at 5 mg/mL. As the mouse, male C57BL/6NCrl, 6-week-old, was purchased from CHARLES RIVER LABORATORIES JAPAN, INC. As drinking water, distilled water or a 2.5 w/v % DSS aqueous solution was freely given. The DSS drinking start date was set as day 1, and the water was given until day 8. Compound A-004A was intraperitoneally administered at 50 mg/kg every 24 hr from day 1. As a negative control, Buffer alone was administered similarly. On day 8, the mouse was dissected, the large intestine was isolated and the length of the large intestine was measured. Conducted in 3-4 cases in each group.

[4] = biological target: T1, LATS1 (Homo sapiens, UniProt O95835); experiment: Kinase inhibitory activity against LATS1 (ADP quantification); format: biochemical; conditions: final concentration 1000 nM; ATP 400 μM; read-out: kinase inhibitory rate
T1 construct: purchased Carna Biosciences
T1 sequence (O95835 1-1130): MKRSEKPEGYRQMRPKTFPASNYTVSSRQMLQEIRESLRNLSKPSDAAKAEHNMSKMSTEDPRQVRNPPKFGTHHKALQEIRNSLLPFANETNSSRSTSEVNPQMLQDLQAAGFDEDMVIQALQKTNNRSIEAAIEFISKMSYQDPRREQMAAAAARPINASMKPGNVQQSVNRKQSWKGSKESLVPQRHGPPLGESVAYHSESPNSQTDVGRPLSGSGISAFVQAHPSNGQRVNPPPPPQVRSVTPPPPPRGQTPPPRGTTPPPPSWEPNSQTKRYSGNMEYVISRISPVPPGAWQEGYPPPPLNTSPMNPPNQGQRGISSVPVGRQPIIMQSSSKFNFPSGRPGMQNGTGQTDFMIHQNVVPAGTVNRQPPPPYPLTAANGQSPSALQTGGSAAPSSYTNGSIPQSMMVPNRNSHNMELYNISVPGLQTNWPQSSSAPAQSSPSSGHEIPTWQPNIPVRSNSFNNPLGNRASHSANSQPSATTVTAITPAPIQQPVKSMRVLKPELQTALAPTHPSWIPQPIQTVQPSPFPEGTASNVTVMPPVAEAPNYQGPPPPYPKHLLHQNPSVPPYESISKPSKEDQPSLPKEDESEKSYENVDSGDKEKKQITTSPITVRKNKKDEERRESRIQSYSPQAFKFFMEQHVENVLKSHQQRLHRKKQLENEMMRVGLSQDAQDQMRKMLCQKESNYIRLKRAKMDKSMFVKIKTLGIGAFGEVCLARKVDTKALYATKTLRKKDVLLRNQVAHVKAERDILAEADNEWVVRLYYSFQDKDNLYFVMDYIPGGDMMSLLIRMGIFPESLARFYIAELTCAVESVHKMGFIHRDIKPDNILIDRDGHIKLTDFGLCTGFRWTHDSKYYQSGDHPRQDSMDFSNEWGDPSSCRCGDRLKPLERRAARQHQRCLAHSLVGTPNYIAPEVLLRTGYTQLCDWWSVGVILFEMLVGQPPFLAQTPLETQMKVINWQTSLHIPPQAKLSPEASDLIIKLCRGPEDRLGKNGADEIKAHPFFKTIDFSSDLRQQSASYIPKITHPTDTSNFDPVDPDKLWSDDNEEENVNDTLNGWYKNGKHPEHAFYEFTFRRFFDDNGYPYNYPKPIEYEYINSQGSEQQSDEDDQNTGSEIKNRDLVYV
Method: (§1) Evaluation of the inhibitory activity (calculation of kinase inhibitory rate) of the compound of the present invention against LATS1 and LATS2 (manufactured by Carna Biosciences) was performed. The activity was measured using the Kinase Assay method described below. The test concentration of the compound of the present invention was set such that the final concentration was 100 nM or 1000 nM.
(§2) As the analysis method of the data, the mean signal of the control well containing reaction components other than the compound of the present invention was set to 0% inhibition, the mean signal without enzyme addition was set to 100% inhibition, and the inhibition rate was calculated from the mean signal of 2 wells of each compound.
(§3) 2 μL of a compound of the present invention solution at 2.5-fold concentration, 1 μL of substrate at 5-fold concentration (SGKtide: NH2-CKKRNRRLSVA-COOH, manufactured by SignalChem), ATP (manufactured by Sigma-Aldrich), MgCl2 (manufactured by FUJIFILM Wako Pure Chemical Corporation) solution (final concentration 10 μM, 400 μM and 5 mM, respectively), and 2 μL of kinase solution at 2.5-fold concentration (final concentration of LATS1 or LATS2 5 μg/mL), each prepared with assay buffer (20 mM HEPES, 0.01% Triton X-100, 2 mM DTT, 50 μg/mL BSA, pH 7.5), were mixed in the wells of a polypropylene 384-well plate (manufactured by Greiner Bio-One, #784900) and reacted at room temperature for 5 hr. To the solution was added 5 μL detection solution [Fluorospark (registered trade mark) Kinase/ADP Multi-Assay Kit; manufactured by FUJIFILM Wako Pure Chemical Corporation], and the mixture was reacted at room temperature for 30 min. Successively, 5 μL of a reaction quenching liquid [Fluorospark (registered trade mark) Kinase/ADP Multi-Assay Kit; manufactured by FUJIFILM Wako Pure Chemical Corporation] was added to discontinue the reaction. Thereafter, the ADP concentration of the reaction solution was quantified by EnSpire (manufactured by PerkinElmer) to detect the kinase reaction.

[5] = biological target: T2, LATS2 (Homo sapiens, UniProt Q9NRM7); experiment: Kinase inhibitory activity against LATS2 (ADP quantification); format: biochemical; conditions: final concentration 1000 nM; ATP 400 μM; read-out: kinase inhibitory rate
T2 construct: purchased Carna Biosciences
T2 sequence (Q9NRM7 1-1088): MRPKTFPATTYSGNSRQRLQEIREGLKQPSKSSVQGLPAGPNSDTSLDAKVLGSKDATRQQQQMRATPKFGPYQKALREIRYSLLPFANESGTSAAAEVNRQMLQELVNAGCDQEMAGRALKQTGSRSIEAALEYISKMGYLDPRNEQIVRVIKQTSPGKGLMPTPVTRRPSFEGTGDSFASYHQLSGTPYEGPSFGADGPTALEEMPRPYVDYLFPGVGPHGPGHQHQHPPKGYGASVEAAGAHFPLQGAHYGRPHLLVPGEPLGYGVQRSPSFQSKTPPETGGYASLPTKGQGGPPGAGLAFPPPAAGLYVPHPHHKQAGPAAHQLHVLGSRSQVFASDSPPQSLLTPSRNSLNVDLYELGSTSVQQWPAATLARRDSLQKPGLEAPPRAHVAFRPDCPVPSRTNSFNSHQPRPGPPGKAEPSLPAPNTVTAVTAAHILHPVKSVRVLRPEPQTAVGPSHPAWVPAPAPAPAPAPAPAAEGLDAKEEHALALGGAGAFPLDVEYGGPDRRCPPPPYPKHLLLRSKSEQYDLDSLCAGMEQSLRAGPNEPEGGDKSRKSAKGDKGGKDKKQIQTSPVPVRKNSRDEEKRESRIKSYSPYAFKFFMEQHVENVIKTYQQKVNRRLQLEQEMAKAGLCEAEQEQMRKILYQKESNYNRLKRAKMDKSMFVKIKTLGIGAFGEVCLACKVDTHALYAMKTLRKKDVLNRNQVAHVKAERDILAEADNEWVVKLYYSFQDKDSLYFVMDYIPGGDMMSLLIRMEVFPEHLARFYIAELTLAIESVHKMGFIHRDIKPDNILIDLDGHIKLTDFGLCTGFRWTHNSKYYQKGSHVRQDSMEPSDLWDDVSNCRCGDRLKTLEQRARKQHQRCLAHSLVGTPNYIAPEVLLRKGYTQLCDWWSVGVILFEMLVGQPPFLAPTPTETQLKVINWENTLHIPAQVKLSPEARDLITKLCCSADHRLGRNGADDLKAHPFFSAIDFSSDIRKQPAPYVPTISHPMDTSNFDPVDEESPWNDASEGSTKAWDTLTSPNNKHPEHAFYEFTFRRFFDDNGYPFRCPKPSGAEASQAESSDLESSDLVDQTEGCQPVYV
Method: as §1, §2, §3

Row | inhibition at 1 µM [4] | inhibition at 1 µM [5] | Compound | Cyst form [1] | phosphorylated YAP amount (%) ([2]; 2D culture conditions) | total YAP amount (%) ([2]; 2D culture conditions) | phosphorylated YAP amount (%) ([2]; 3D culture conditions) | total YAP amount (%) ([2]; 3D culture conditions) | length of the large intestine [3]
1 | – | – | CC/C(=N\NC(=O)C(C)Nc1cccnc1)c1ccc(O)c(C)c1O (single isomer, unassigned) [A-004A, (E)-N′-(1-(2,4-dihydroxy-3-methylphenyl)propylidene)-2-(pyridin-3-ylamino)propanehydrazide] | Cyst with a normal form was formed | 14% | 97% | 11% | 112% | shortening of the large intestine was suppressed more
2 | ≥ 40% | ≥ 40% | CC/C(=N\NC(=O)C(C)Oc1cccnc1)c1ccc(O)c(C)c1O (centres unmarked) [C-001, (E)-N′-(1-(2,4-dihydroxy-3-methylphenyl)propylidene)-2-(pyridin-3-yloxy)propanehydrazide] | – | – | – | – | – | –
